Article PMC10495491 (Parasitology Research, 2023)

Legend:
Vero cells = assay: Cytotoxicity test (MTT) on Vero cells; format: cell-based, African green monkey; conditions: 24 h incubation
Experimental: (§1) Vero cells were seeded at a density of 1×10^4 cells/well in 96-well plate and incubated for 24 h at 37 °C in a 5% CO2 incubator. […] A stock solution in DMSO was initially prepared then diluted 100 times with culture media to obtain the highest concentration, then it was serially diluted. Three replicates for each drug concentration were performed. Cell viability was assayed by MTT method where 20 μl of 5 mg/ml MTT (Sigma, USA) was added to each well, and the plate was incubated at 37 °C for 3 h. Then, MTT solution was removed, 100 μl DMSO was added, and the absorbance of each well was measured using a Benchmark Microplate Reader (Bio Rad). […] [2021]; Montazeri et al. [2020]). Experiments were repeated three times. Vero cell growth suppression (%) was estimated using the following equation: […]×100 using CompuSyn software (version 1) (Chou [2006]; Chou and Talaly [1977]).

T. gondii tachyzoites = assay: Effects of sulfa drugs on intracellular Toxoplasma gondii in Vero cells (MTT); format: cell-based, Toxoplasma gondii RH strain; conditions: 24 h treatment
Experimental: For this purpose, Vero cells were cultured in 96-well plates (1×10^4 cells/well) for 24 h in RPMI 1640 medium supplemented with 10% inactivated FBS at 37 °C and 5% CO2. Next, the cells were infected with T. gondii tachyzoites (parasite: cell ratio = 10:1). Four hours following the inoculation, the cells were washed twice with RPMI to remove any non-adherent parasites. […] Cell viability was assayed by MTT method. Twenty microliters of 5 mg/ml MTT (Sigma, USA) was added to each well and the plate was incubated at 37 °C for 3 h. Then, MTT solution was removed, 100 μl DMSO was added, and the absorbance of each well was measured using a Benchmark Microplate Reader (Bio Rad). The optical absorbance was measured at 570-nm wavelength. Growth inhibition (GI) was calculated as in the following equation: GI%=At-Ac/Ac×100
where At and Ac are the absorbance of treated cells and control, respectively. […] Selectivity index (SI) of the samples was calculated using the IC50 and the host-cell cytotoxicity profiles CC50 (SI = CC50/IC50) (Montazeri et al. [2020]) using CompuSyn software (version 1) (Chou [2006]; Chou and Talaly [1977]).

[1] = tested on: T. gondii RH strain tachyzoites; assay: Transmission electron microscopy of intracellular tachyzoites in Vero cells; format: cell-based, Toxoplasma gondii RH strain; conditions: infected Vero cells treated with the IC50 of each compound for 24 h
Experimental: After confluence of Vero cells in four T-25 culture flasks, T. gondii RH strain tachyzoites, suspended in 5 ml of RPMI, and were added to each flasks in a ratio of 5:1 parasite-host cell (Diab and El-Bahy [2008]). Flasks were incubated for 2 h. After that, the cells were washed twice with culture media to remove extracellular parasites. The cells in culture flasks were incubated in 5 ml of culture media for 24 h at 37 °C in a 5% CO2 (Carvalho and De Melo [2010b]). […] For TEM (Jeol JSM-1400), trypsinization was followed by centrifugation at 2000g for 10 min, and the resulting pellet was fixed in buffered glutaraldehyde-phosphate 2.5% and stored at 4 °C until used (Shaw et al. [2002]). Then, the fixed specimens were washed thoroughly with Millonig phosphate buffer and post-fixed with buffered osmium tetroxide-phosphate. Following that, they were dehydrated in ascending concentrations of ethyl alcohol followed by embedding in epoxy resin. Finally, ultrathin sections were doubly stained with uranyl acetate and lead citrate trihydrate stains and examined under TEM (Winey et al. [2014]).

[2] = Cytotoxicity test (MTT) on Vero cells; format: cell-based, African green monkey; conditions: African green monkey, 24 h incubation
Experimental: as §1

tachyzoites = conditions: ref Portes et al. [2018]; cited from earlier work

4-(4-(hydroxymethyl)-1H-1,2,3-triazol-1-yl)-N-(pyridin-2-yl)benzenesulfonamide [3e]
CC50 (Vero cells): 510 ± 22 nM
IC50 (T. gondii tachyzoites): 53.3 ± 10.5 nM
Ultrastructural alterations of intracellular tachyzoites (TEM) [1]: large PVs containing multiple vacuolated tachyzoites without nuclei or organelles

Nc1ccc(S(=O)(=O)Nc2ncccn2)cc1 [Sulfadiazine, sulfadiazine]
CC50 at 24 h [2]: 1390 ± 100 nM
IC50 (T. gondii tachyzoites; Toxoplasma gondii): 185 ± 18.4 nM
Ultrastructural alterations in tachyzoites after treatment (tachyzoites): no significant ultrastructural alterations
